Assay results taken from US20230245787A1, “METHODS FOR PREDICTING SYNERGISTIC DRUG COMBINATION” (GenomiCare Biotechnology (Shanghai) Co., Ltd, priority 2020, published 2023).

System: Hepatocellular Carcinoma (HCC) and Intrahepatic Cholangiocarcinoma (ICC)
Test: Exhaustive Cox proportional hazards (ECPH) model on real-world survival data of drug combination groups
Type: in vivo, human
Settings: Cox PH
[1] = Regorafenib x Lenvatinib groups (Contingency Table B)
[2] = Sorafenib x Lenvatinib groups (Contingency Table A)

From the text: Then, a novel exhaustive Cox proportional hazards model (ECPH) model is used to evaluate all possible drug combinations with respect to their efficacy in prolonging patients' lives. In terms of efficacy, there can be three types of drug interaction: additive, synergistic, and antagonistic.
The approach used in the present disclosure further extends the CPH model. In an example process, drugs used for fewer than one treatment cycle or the number of patients in any variables less than 15 were removed. Then, a 2×2 contingency table is set up, in which rows are defined by every unique genomic or clinical variable, and the columns are defined by drug variable (See Table 3 as an illustration). Then the CPH model (as described in “The Robust Inference for the Cox Proportional Hazards Model”, D. Y. Lin &L. J. Wei, Journal of the Am. Stat. Assoc., pp. 1074-1078, 1989) is used to calculate independent risk factors, cumulative hazard-ratios, and p-values for each drug combination table.
Additive combination definition: The HR score of the drug A+ plus factor B+ group is between the other two treatment groups (A+B− and A−B+). The P-value of the drug A+ plus factor B+ group is not statistically significant compared with the other two treatment groups (A+B− and A−B+).
Synergistic combination definition: The HR score of the drug A+ plus factor B+ group is smaller than the other two treatment groups (A+B− and A−B+). […] The drug A+ plus factor B+ group is the statistically independent variable of the other two treatment groups (A+B− and A−B+).
In this example, data were collected and analyzed in the following steps:
(2) Real-world clinical electronic health records (EHRs) collection, clinical data entry and l long-term follow-up, according to the flowchart shown in FIG. 4.
(3) Comprehensive genomic data is matched with real-world treatment patterns and clinical outcomes feature database and analysis workflow, as shown in FIG. 5.
(4) A large one-hot encoding matrix(˜10,000*10,000) of comprehensive genomic and clinical factors. Based on the one-hot encoding matrix, the combined effects of all factors such as: age, gender, gene mutation, and drug treatment can be obtained.
(5) Applying exhaustive Cox proportional hazards model (ECPH) model
a. Patients are divided into four categories based on the combined use of the two drugs. For an example: Patients treated with Lenvatinib and without Sorafenib were defined as the Lenvatinib treatment group. Patients treated with Sorafenib and without Lenvatinib were defined as the Sorafenib treatment group. Patients treated with Sorafenib and Lenvatinib were defined as the Sorafenib-Lenvatinib treatment group. Patients treated without Sorafenib and Lenvatinib were defined as Sorafenib-Lenvatinib free treatment group.
b. 2×2 contingency tables were calculated for all possible drug combinations pairs: Millions of possible combinations of Lenvatinib.
c. Cox PH model (The Robust Inference for the Cox Proportional Hazards Model D. Y. Lin &L. J. Wei Pages 1074-1078) was used to calculate independent risk factors, cumulative hazard-ratios, and p-values for each drug combination table. […] It can be estimated as follow: h(t)=h0(t)×exp(b1x1+b2x2+ . . . +bpxp) where, • t represents the survival time. • h(t) is the hazard function determined by a set of p covariates (x1, x2, . . . , xp) • the coefficients (b1, b2, . . . , bp) measure the impact (i.e., the effect size) of covariates. • the term h0 is referred to the baseline hazard.

SMILES | HR (hazard ratio) (PD-1/PD-L1 x Lenvatinib groups (Contingency Table C), Chinese HCC and ICC patients) | HR (hazard ratio) [1] | HR (hazard ratio) [2]
COc1cc2nccc(Oc3ccc(NC(=O)NC4CC4)c(Cl)c3)c2cc1C(N)=O [Lenvatinib] | 1.00 | 0.74 | 0.56
CNC(=O)c1cc(Oc2ccc(NC(=O)Nc3ccc(Cl)c(C(F)(F)F)c3)c(F)c2)ccn1 [Regorafenib] |  | 0.99 | 
CNC(=O)c1cc(Oc2ccc(NC(=O)Nc3ccc(Cl)c(C(F)(F)F)c3)cc2)ccn1 [Sorafenib] |  |  | 0.76
